Measured values: patent publication US12435061B2 (priority 2020, dated 2025)
Read-outs that look alike come from different tables or passages of the source.

Biological target: hTRPV3 (Homo sapiens (Human), UniProt Q8NET8)
Test: Whole-cell patch clamp, hTRPV3 Phase 1 / Phase 2 currents
Type: cell-based
How it was run: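 Currents are activated by 20 μM 2-APB or by perfusate at 28 °C or warmer, in Ringer's solution, and quantified at ±80 mV.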

[1] = Phase 1 current, inward, whole-cell patch clamp, read-out: hTRPV3 Patch P1 Inwd
[2] = Phase 1 current, read-out: hTRPV3 (nM) (Phase 1)
[3] = Phase 2 current, inward, whole-cell patch clamp, read-out: hTRPV3 Patch P2 Inwd
[4] = Phase 2 current, read-out: hTRPV3 (nM) (Phase 2)

Chain of hTRPV3 (Q8NET8 whole entry): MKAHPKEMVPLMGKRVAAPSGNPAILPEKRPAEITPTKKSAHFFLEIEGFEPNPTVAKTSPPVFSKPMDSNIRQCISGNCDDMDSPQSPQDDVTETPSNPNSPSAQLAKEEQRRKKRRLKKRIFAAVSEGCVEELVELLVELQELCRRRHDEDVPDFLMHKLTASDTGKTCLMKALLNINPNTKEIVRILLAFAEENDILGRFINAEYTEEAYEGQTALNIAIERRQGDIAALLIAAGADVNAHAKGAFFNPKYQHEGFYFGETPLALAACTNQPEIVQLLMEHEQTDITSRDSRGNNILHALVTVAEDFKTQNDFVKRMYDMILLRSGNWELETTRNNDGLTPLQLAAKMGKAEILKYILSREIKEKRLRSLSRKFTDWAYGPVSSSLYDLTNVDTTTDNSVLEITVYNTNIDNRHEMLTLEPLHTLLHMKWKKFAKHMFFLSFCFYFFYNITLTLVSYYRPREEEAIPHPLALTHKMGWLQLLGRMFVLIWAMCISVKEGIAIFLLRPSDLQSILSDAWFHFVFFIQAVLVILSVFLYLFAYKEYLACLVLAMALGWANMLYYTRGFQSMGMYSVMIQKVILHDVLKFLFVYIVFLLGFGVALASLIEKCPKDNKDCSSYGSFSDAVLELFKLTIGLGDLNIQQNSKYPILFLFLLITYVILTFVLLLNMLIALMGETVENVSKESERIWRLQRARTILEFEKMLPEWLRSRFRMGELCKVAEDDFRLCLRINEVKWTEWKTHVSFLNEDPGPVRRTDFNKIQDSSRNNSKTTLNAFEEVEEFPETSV

Cc1cccnc1O[C@H]1CCN(c2ccc(-c3ccccc3C#N)nc2CO)C1 [Compound 1-192, (S)-2-(6-(hydroxymethyl)-5-(3-(3-methylpyridin-2-yloxy)pyrrolidin-1-yl)pyridin-2-yl)benzonitrile]
IC50 [1]: > 1000 nM | IC50 [2]: > 3200 nM | IC50 [3]: > 1000 nM | IC50 [4]: ~2750 nM

Cc1cccnc1O[C@H]1CCN(c2ccc(-c3ccccc3)cc2CCO)C1 [Compound 1-193, (S)-2-(4-(3-(3-methylpyridin-2-yloxy)pyrrolidin-1-yl)biphenyl-3-yl)ethanol]
IC50 [1]: 100 to 1000 nM | IC50 [2]: 260 nM

Cc1ccccc1-c1ccc(N2CC[C@H](Oc3ccc(Cl)cn3)C2)c(CO)n1 [Compound 1-195, (S)-(3-(3-(5-chloropyridin-2-yloxy)pyrrolidin-1-yl)-6-o-tolylpyridin-2-yl)methanol]
IC50 [1]: 100 to 1000 nM | IC50 [2]: 106 nM | IC50 [3]: 10 to 100 nM | IC50 [4]: 71.3 nM

CCc1ccccc1-c1ccc(N2CC[C@H](Oc3ccc(C(F)(F)F)cn3)C2)c(CO)n1 [Compound 1-196, (S)-(6-(2-ethylphenyl)-3-(3-(5-(trifluoromethyl)pyridin-2-yloxy)pyrrolidin-1-yl)pyridin-2-yl)methanol]
IC50 [1]: > 1000 nM | IC50 [2]: > 3200 nM

Cc1ccccc1-c1ccc(N2CC[C@H](Oc3ncccc3C)C2)c(CCO)c1 [Compound 1-198, (S)-2-(2′-methyl-4-(3-(3-methylpyridin-2-yloxy)pyrrolidin-1-yl)biphenyl-3-yl)ethanol]
IC50 [1]: 100 to 1000 nM | IC50 [2]: 184 nM

OCc1nc(Oc2ccccc2)ccc1N1CC[C@H](Oc2ccc(C(F)(F)F)cn2)C1 [Compound 1-199, (S)-(6-phenoxy-3-(3-(5-(trifluoromethyl)pyridin-2-yloxy)pyrrolidin-1-yl)pyridin-2-yl)methanol]
IC50 (hTRPV3 Patch P1 Inwd (nM)): > 1000 nM | IC50 (hTRPV3 Patch P2 Inwd (nM)): > 1000 nM | IC50 (read-out: hTRPV3 (nM) (Phase 1)): > 3200 nM | IC50 (read-out: hTRPV3 (nM) (Phase 2)): > 3200 nM

Cc1ccc(O[C@H]2CCN(c3ccc(-c4ccccc4C)nc3CCO)C2)nc1 [Compound 1-200, (S)-2-(3-(3-(5-methylpyridin-2-yloxy)pyrrolidin-1-yl)-6-o-tolylpyridin-2-yl)ethanol]
IC50 [1]: 100 to 1000 nM | IC50 [2]: 709 nM

CCc1ccccc1-c1ccc(N2CC[C@H](Oc3ccc(Cl)cn3)C2)c(CO)n1 [Compound 1-201, (S)-(3-(3-(5-chloropyridin-2-yloxy)pyrrolidin-1-yl)-6-(2-ethylphenyl)pyridin-2-yl)methanol]
IC50 [1]: > 1000 nM | IC50 [2]: > 3200 nM

COc1ccccc1-c1ccc(N2CC[C@H](Oc3ccc(Cl)cn3)C2)c(CO)n1 [Compound 1-202, (S)-(3-(3-(5-chloropyridin-2-yloxy)pyrrolidin-1-yl)-6-(2-methoxyphenyl)pyridin-2-yl)methanol]
hTRPV3 (nM) (Phase 1) (Phase 1 current): Incomplete Block (Phase 1)

CCOC(=O)c1nc(-c2ccccc2)sc1N1CC[C@H](Oc2ccc(C(F)(F)F)cn2)C1 [Compound 1-206, (S)-ethyl 2-phenyl-5-(3-(5-(trifluoromethyl)pyridin-2-yloxy)pyrrolidin-1-yl)thiazole-4-carboxylate]
IC50 [1]: > 1000 nM | IC50 [2]: 2670 nM

Cc1ccccc1-c1ccc(N2CC[C@H](Oc3ccc(F)cn3)C2)c(CO)n1 [Compound 1-207, (S)-(3-(3-(5-fluoropyridin-2-yloxy)pyrrolidin-1-yl)-6-o-tolylpyridin-2-yl)methanol]
IC50 [1]: 100 to 1000 nM | IC50 [2]: 283 nM

CCc1ccccc1-c1ccc(N2CC[C@H](Oc3ccc(F)cn3)C2)c(CO)n1 [Compound 1-208]
IC50 [1]: > 1000 nM | IC50 [3]: 100 to 1000 nM

N#Cc1ccccc1-c1ccc(N2CC[C@H](Oc3ccc(F)cn3)C2)c(CO)n1 [Compound 1-210, (S)-2-(5-(3-(5-fluoropyridin-2-yloxy)pyrrolidin-1-yl)-6-(hydroxymethyl)pyridin-2-yl)benzonitrile]
IC50 [1]: 100 to 1000 nM | IC50 [2]: 972 nM

Cc1ccc(O[C@H]2CCN(c3ccc(Oc4ccccc4)nc3CO)C2)nc1 [Compound 1-211]
IC50 [1]: 100 to 1000 nM | IC50 [2]: 931 nM | IC50 [3]: 100 to 1000 nM | IC50 [4]: 936 nM

COc1ccccc1-c1ccc(N2CC[C@H](Oc3ncccc3F)C2)c(CO)n1 [Compound 1-213, (S)-(3-(3-(3-fluoropyridin-2-yloxy)pyrrolidin-1-yl)-6-(2-methoxyphenyl)pyridin-2-yl)methanol]
IC50 [1]: > 1000 nM | IC50 [2]: 2790 nM

CCc1ccccc1Oc1ccc(N2CC[C@H](Oc3ccc(C)cn3)C2)c(CO)n1 [Compound 1-214, (S)-(6-(2-ethylphenoxy)-3-(3-(5-methylpyridin-2-yloxy)pyrrolidin-1-yl)pyridin-2-yl)methanol]
hTRPV3 (nM) (Phase 1) (Phase 1 current): Incomplete Block (Phase 1)

Cc1ccc(O[C@H]2CCN(c3ccc(-c4ccccc4)nc3CCO)C2)nc1 [Compound 1-215]
IC50 [1]: > 1000 nM | IC50 [2]: 1000 nM

Cc1ccccc1-c1ccc(N2CC[C@H](Oc3ncccc3F)C2)c(CO)n1 [Compound 1-216, (S)-(3-(3-(3-fluoropyridin-2-yloxy)pyrrolidin-1-yl)-6-o-tolylpyridin-2-yl)methanol]
IC50 [1]: > 1000 nM | IC50 [2]: 1160 nM

N#Cc1ccccc1-c1ccc(N2CC[C@H](Oc3ncccc3F)C2)c(CO)n1 [Compound 1-217, (S)-2-(5-(3-(3-fluoropyridin-2-yloxy)pyrrolidin-1-yl)-6-(hydroxymethyl)pyridin-2-yl)benzonitrile]
IC50 [1]: > 1000 nM | IC50 [2]: 3900 nM

CCc1ccccc1-c1ccc(N2CC[C@H](Oc3ccc(C)cn3)C2)c(CCO)n1 [Compound 1-218, (S)-2-(6-(2-ethylphenyl)-3-(3-(5-methylpyridin-2-yloxy)pyrrolidin-1-yl)pyridin-2-yl)ethanol]
IC50 [1]: 100 to 1000 nM | IC50 [2]: 614 nM

Cc1cccc(Oc2ccc(N3CC[C@H](Oc4ncccc4Cl)C3)c(CO)c2)c1 [Compound 1-242, (S)-(2-(3-(3-chloropyridin-2-yloxy)pyrrolidin-1-yl)-5-(m-tolyloxy)phenyl)methanol]
IC50 [1]: 10 to 100 nM | IC50 [2]: 37 nM

Cc1ccc(O[C@H]2CCN(c3ccc(-c4ccccn4)nc3CO)C2)nc1 [Compound 1-244, (S)-(5-(3-(5-methylpyridin-2-yloxy)pyrrolidin-1-yl)-2, 2′-bipyridin-6-yl)methanol]
IC50 [1]: > 1000 nM | IC50 [2]: 4650 nM

OCc1nc(-c2ncccn2)ccc1N1CC[C@H](Oc2ccc(C(F)(F)F)cn2)C1 [Compound 1-245, (S)-(6-(pyrimidin-2-yl)-3-(3-(5-(trifluoromethyl)pyridin-2-yloxy)pyrrolidin-1-yl)pyridin-2-yl)methanol]
IC50 [1]: > 1000 nM | IC50 [2]: > 3200 nM

N#Cc1ccc(-c2ccc(N3CC[C@H](Oc4ccc(C(F)(F)F)cn4)C3)c(CO)c2)cc1 [Compound 1-252, (S)-3′-(hydroxymethyl)-4′-(3-(5-(trifluoromethyl)pyridin-2-yloxy)pyrrolidin-1-yl)biphenyl-4-carbonitrile]
IC50 [1]: 100 to 1000 nM | IC50 [2]: 886 nM

NC(=O)c1ccc(-c2ccc(N3CC[C@H](Oc4ccc(C(F)(F)F)cn4)C3)c(CO)c2)cc1 [Compound 1-253, (S)-3′-(hydroxymethyl)-4′-(3-(5-(trifluoromethyl)pyridin-2-yloxy)pyrrolidin-1-yl)biphenyl-4-carboxamide]
IC50 [1]: > 1000 nM | IC50 [2]: > 3200 nM

OCc1cc(-c2ccccn2)ccc1N1CC[C@H](Oc2ccc(C(F)(F)F)cn2)C1 [Compound 1-254, (S)-(5-(pyridin-2-yl)-2-(3-(5-(trifluoromethyl)pyridin-2-yloxy)pyrrolidin-1-yl)phenyl) methanol]
IC50 [1]: > 1000 nM | IC50 [2]: 1290 nM

Cc1cccnc1-c1ccc(N2CC[C@H](Oc3ccc(C(F)(F)F)cn3)C2)c(CO)c1 [Compound 1-255, (S)-(5-(3-methylpyridin-2-yl)-2-(3-(5-(trifluoromethyl)pyridin-2-yloxy)pyrrolidin-1-yl)phenyl)methanol]
IC50 [1]: 100 to 1000 nM | IC50 [2]: 806 nM

Cc1ccc(O[C@H]2CCN(c3ccc(-c4ccccc4CN(C)C(=O)OC(C)(C)C)nc3CO)C2)nc1 [Compound 1-258, (S)-tert-butyl 2-(6-(hydroxymethyl)-5-(3-(5-methylpyridin-2-yloxy)pyrrolidin-1-yl)pyridin-2-yl)benzyl (methyl)carbamate]
IC50 [1]: 100 to 1000 nM | IC50 [2]: 276 nM

Cc1ccc(O[C@H]2CCN(c3ccc(-c4ncccc4C)cc3CO)C2)nc1 [Compound 1-259, (S)-(5-(3-methylpyridin-2-yl)-2-(3-(5-methylpyridin-2-yloxy)pyrrolidin-1-yl)phenyl) methanol]
IC50 [1]: > 1000 nM | IC50 [2]: 3050 nM | IC50 [3]: > 1000 nM | IC50 [4]: 2260 nM

CCc1ccccc1C(O)c1ccc(N2CC[C@H](Oc3ncccc3Cl)C2)c(CO)c1 (stereo partly drawn) [Compound 1-260, (4-((S)-3-(3-chloropyridin-2-yloxy)pyrrolidin-1-yl)-3-(hydroxymethyl)phenyl)(2-ethylphenyl)methanol]
IC50 [1]: > 1000 nM | IC50 [2]: 3150 nM

OCc1ccc(-c2ccc(N3CC[C@H](Oc4ccc(C(F)(F)F)cn4)C3)c(CO)c2)cc1 [Compound 1-261, (S)-(4-(3-(5-(trifluoromethyl)pyridin-2-yloxy)pyrrolidin-1-yl)biphenyl-3,4′-diyl)dimethanol]
IC50 [1]: 100 to 1000 nM | IC50 [2]: 604 nM

O=C(c1ccc(N2CC[C@H](Oc3ncccc3Cl)C2)c(CO)c1)c1ccccc1Cl [Compound 1-263, (S)-(2-chlorophenyl)(4-(3-(3-chloropyridin-2-yloxy)pyrrolidin-1-yl)-3-(hydroxymethyl)phenyl)methanone]
IC50 [1]: 100 to 1000 nM | IC50 [2]: 444 nM

O=C(c1ccc(N2CC[C@H](Oc3ncccc3F)C2)c(CO)c1)c1ccccc1Cl [Compound 1-265, (S)-(2-chlorophenyl)(4-(3-(3-fluoropyridin-2-yloxy)pyrrolidin-1-yl)-3-(hydroxymethyl)phenyl)methanone]
IC50 [1]: > 1000 nM | IC50 [2]: 1780 nM
